Values quoted from earlier work, collected in PMC10582678 (Clinical and Translational Science, 2023).
Like-named read-outs stand apart in the source and are kept apart here.

Biological target: BTK (Homo sapiens, UniProt Q06187)
Conditions: cited from earlier work

Sequence of BTK (Q06187 whole entry): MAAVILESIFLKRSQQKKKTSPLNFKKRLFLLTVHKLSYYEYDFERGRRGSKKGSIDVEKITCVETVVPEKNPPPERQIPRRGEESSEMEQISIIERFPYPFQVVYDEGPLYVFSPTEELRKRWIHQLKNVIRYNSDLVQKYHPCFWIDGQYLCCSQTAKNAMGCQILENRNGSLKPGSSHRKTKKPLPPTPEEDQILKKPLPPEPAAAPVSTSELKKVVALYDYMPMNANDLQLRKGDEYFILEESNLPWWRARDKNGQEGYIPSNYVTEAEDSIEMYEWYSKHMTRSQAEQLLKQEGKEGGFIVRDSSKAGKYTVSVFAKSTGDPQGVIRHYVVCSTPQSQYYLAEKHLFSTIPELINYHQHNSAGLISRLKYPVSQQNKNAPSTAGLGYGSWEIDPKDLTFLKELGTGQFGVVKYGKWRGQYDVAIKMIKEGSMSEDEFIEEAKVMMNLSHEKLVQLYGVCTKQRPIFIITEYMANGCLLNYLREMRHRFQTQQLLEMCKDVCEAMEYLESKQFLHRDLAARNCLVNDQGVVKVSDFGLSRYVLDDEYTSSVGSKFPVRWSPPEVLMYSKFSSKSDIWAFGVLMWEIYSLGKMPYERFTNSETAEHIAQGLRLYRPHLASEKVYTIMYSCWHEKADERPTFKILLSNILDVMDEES

| Structure (SMILES) | BTK receptor occupancy rate (twice daily dosing regimen) [%] | BTK receptor occupancy rate (b.i.d., patients with rheumatoid arthritis) [%] |
| --- | --- | --- |
| CC#CC(=O)N1CCC[C@H]1c1nc(-c2ccc(C(=O)Nc3ccccn3)cc2)c2c(N)nccn12 [acalabrutinib] | 96 | – |
| C=CC(=O)Nc1cccc(Nc2nc(Nc3ccc(OCCOC)cc3)ncc2F)c1 [spebrutinib] | – | 88 |
